Measured values from patent US8003660B2, “Modulators of muscarinic receptors” (Vertex Pharmaceuticals Incorporated, priority 2006, dated 2011).

Columns and labels:
Type in all cases: cell-based
[1] = target: T1, M4 muscarinic receptor (Homo sapiens, UniProt P08173); assay: Functional mobilization of intracellular calcium (FLIPR) in CHO cells expressing M4; settings: for M4 Activity: CHO cells expressing M4, FLIPR calcium assay; for Emax: CHO, 100% efficacy = maximum response obtained with the Carbachol control
T1 construct: expressed in transfected cells; host or cells: CHO (M4-CHO)
T1 sequence (P08173 1-479): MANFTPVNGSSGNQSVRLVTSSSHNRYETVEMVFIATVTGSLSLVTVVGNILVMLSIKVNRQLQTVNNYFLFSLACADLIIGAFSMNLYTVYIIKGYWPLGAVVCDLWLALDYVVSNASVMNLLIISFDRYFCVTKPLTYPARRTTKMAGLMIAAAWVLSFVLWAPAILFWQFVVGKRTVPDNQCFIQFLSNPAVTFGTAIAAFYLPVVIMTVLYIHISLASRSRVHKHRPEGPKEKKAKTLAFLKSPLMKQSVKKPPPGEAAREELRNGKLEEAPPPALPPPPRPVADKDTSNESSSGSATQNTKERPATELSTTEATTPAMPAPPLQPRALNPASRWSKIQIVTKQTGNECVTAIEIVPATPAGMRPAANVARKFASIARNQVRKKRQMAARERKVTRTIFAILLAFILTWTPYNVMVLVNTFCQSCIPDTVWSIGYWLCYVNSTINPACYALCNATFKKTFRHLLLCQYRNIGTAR
Outline: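 Calcium flux is read on FLIPR over 60 sec at 488/540 nm in muscarinic-receptor CHO lines. Antagonist mode adds carbachol at EC80 after 15 min compound preincubation or with simultaneous co-application. Agonist mode adds compound alone. Cells carry Fluo-3 or Calcium 3 dye in probenecid-containing pH 7.4 buffer, 0.5% DMSO final.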

[2] = target: T2, M3 muscarinic receptor (Homo sapiens, UniProt P20309); assay: Functional mobilization of intracellular calcium (FLIPR) in CHO cells expressing M3; settings: for M3 Activity: CHO cells expressing M3, FLIPR calcium assay; for Emax: CHO, 100% efficacy = maximum response obtained with the Carbachol control
T2 construct: expressed in transfected cells; host or cells: CHO (M3-CHO)
T2 sequence (P20309 whole entry): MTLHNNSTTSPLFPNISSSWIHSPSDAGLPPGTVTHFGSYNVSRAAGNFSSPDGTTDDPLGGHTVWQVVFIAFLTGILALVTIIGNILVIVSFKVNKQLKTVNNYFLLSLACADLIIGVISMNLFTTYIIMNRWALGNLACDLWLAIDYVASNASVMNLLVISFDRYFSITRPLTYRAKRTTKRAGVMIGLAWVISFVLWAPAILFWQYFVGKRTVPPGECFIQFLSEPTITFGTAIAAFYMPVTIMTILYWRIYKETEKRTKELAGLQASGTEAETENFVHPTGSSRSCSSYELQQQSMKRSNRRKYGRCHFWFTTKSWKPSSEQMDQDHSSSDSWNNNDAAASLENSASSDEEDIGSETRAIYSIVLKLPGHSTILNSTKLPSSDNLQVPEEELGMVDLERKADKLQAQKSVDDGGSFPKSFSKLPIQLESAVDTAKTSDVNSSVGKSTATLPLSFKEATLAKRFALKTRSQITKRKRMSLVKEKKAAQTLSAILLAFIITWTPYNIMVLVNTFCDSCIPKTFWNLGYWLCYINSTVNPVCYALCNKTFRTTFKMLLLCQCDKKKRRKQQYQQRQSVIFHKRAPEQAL
Outline: (§1)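 Recombinant CHO cells loaded with Fluo-3 AM or Calcium 3 dye in pH 7.4 buffer containing 1 mM probenecid, with 0.5% final DMSO. For agonism, compound is added directly. For inhibition, it is preincubated 15 min, or co-applied, before carbachol at EC80. FLIPR fluorescence (ex 488, em 540 nm) is recorded for 60 s.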

[3] = target: T3, M1 muscarinic receptor (Homo sapiens, UniProt P11229); assay: Functional mobilization of intracellular calcium (FLIPR) in CHO cells expressing M1; settings: for M1 Activity: CHO cells expressing M1, FLIPR calcium assay; for Emax: CHO, 100% efficacy = maximum response obtained with the Carbachol control
T3 construct: expressed in transfected cells; host or cells: CHO (M1-CHO)
T3 sequence (P11229 1-460): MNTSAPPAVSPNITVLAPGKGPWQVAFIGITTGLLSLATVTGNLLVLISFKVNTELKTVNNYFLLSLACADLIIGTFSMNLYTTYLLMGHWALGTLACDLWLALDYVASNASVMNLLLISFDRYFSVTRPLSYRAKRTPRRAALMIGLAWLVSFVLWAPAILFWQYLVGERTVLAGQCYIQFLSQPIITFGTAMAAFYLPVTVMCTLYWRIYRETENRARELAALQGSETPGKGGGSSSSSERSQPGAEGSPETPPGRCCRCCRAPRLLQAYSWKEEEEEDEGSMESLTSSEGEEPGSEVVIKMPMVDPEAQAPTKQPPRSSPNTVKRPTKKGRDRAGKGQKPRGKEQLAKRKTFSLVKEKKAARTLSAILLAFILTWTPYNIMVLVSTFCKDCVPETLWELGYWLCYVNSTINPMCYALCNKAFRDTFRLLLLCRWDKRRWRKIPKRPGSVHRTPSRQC
Outline: as §1

[4] = target: T4, M2 muscarinic receptor (Homo sapiens, UniProt P08172); assay: Functional mobilization of intracellular calcium (FLIPR) in CHO cells expressing M2; settings: for M2 Activity: CHO cells expressing M2, FLIPR calcium assay; for Emax: CHO, 100% efficacy = maximum response obtained with the Carbachol control
T4 construct: expressed in transfected cells; host or cells: CHO (M2-CHO)
T4 sequence (P08172 1-466): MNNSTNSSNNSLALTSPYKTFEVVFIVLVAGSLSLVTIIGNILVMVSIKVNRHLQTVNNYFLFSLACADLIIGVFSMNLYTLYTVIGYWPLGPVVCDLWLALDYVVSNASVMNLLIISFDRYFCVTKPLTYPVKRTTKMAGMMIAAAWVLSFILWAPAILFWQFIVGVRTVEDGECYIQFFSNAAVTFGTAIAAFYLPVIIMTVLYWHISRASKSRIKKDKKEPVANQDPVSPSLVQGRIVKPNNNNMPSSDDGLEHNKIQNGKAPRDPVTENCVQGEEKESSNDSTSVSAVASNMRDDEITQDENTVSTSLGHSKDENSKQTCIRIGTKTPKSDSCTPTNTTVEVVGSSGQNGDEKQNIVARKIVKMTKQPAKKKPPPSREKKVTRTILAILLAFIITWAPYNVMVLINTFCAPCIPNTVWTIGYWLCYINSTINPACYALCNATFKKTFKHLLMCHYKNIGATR
Outline: as §1

SMILES | M4 Activity [1] | Emax [1] | M3 Activity [2] | Emax [2] | M1 Activity [3] | Emax [3] | M2 Activity [4] | Emax [4]
CC(C)(C)CCN1CCC2(CC1)C[C@H](NC(=O)C1CC1)c1ccccc12 [compound 300] | +++ (activity was measured to be less than 2.0 μM) | < 25% | + (activity was measured to be greater than 5.0 μM) | < 25% | +++ (activity was measured to be less than 2.0 μM) | 25 to 100% | + (activity was measured to be greater than 5.0 μM) | < 25%
C=CCCCN1CCC2(CC1)C[C@H](NC(=O)N1CCCC1)c1ccccc12 [compound 301] | + (activity was measured to be greater than 5.0 μM) | < 25% | + (activity was measured to be greater than 5.0 μM) | < 25% | + (activity was measured to be greater than 5.0 μM) | < 25% | + (activity was measured to be greater than 5.0 μM) | < 25%
